Assays:
[1] = test system: ovary cancer; assay: Clinical tests in patients with ovary cancer of the IV clinical stage; assay type: in vivo, human patients
Excerpt: Depending on the treatment method all the patients were divided into 2 groups.

[2] = test system: inner organs; assay: Autopsy, morphological and histological investigations of inner organs; assay type: in vivo, rats; mice; conditions: doses lesser than the toxic one, 30th day after administration
Protocol: The dead animals were subjected to an autopsy and morpholigical and histological investigations of the inner organs were performed. The animals administered with the compounds in doses lesser than the toxic one were slaughtered after 3, 7, 14 and 30 days. Their inner organs were also subjected to an autopsy.

[3] = test system: ovary carcinoma; conditions: in combination with vinblastin, actinomycin and prednisolone; cited from earlier work
[4] = test system: regrafted Schvetz's erythroleukosis; assay: Antitumor activity against regrafted Schvetz's erythroleukosis in rats; assay type: in vivo, white non-descript rats
Protocol: Their antitumor activity was studies in respect of regrafted Schvetz's erythroleukosis. The antitumor activity of each of the compounds according to the present invention was assessed from the experiments carried out on white non-descript rats with a mass of 150-200 g (10 animals in a group). The animals were hypodermally inoculated (in the thigh) with 2×10^8 cells of a regrafted Schvetz's erythroleukosis strain. On the 4th day after inoculation of the tumor cells, i.e. during the period of the lograithmic phase of the tumor growth the animals were administered with the compounds according to the present invention. They were administered once intraperitoneally or directly into the tumor node as powders. The compounds according to the present invention were administered in maximum effective and minimum effective doses:
The antitumor effect of the compounds according to the present invention was studies in comparison with the control and with the known preparations--CDDP and polymethylsiloxane.
The administered dose of CDDF was 8.1 mg/kg, that of polymethylsiloxane--4,000 mg/kg. […] Polymethylsiloxane was introduced in the form of a powder. Prior to administration the powders of polymethylsiloxane and of the compounds according to the present invention were sterilized by autoclaving in sealed flasks or in package from parchment paper for one hour under the excessive pressure of 1.0 atm and at the temperatuer of 100° C.
The animals were narcotized by way of a hypodermal injection of hexenal in a dose of from 40 to 60 mg/kg in the case of an intraperitoneal adminsitration of the compounds according to the present invention. […]
The antitumor activity of the test compounds was assessed for the following biological characteristics; the degree of inhibition of the tumor growth, survival of animals on the 10th day after inoculation of the tumor cells, life span of the animals.

[5] = test system: humoral immunity; assay: Effect on humoral immunity: antibody-forming cells in spleen and antibodies in blood serum of tumor-carriers; assay type: in vivo, rats of the Vistar line
Protocol: (§1) The immunological activity of the compound II according to the present invention was studied by variation of the characteristics of cellular and humoral immunity.
(§2) The effect of the compound II according to the present invention on the cell immunity was assessed by the time of rejection of a skin graft in the tumor-carriers. The effect on the humoral immunity was assessed by the number of antibody-forming cells in the spleen and antibodies in the blood serum formed in response to immunization, with ram ertyhrocytes, of both intact animals and the tumor-carriers.
Use was made of rats of the Vistar line which were incoulated, under the thigh skin, with 2×10^8 cells of a regrafted strain of Schvetz'erthroleukosis. […] On the 8th day after regrafting of the tumor the animals were subjected to immuniation by way of an intravenous administration of ram erythrocytes in the dose of1×10^6 cells. 4 days after immunization the animals were slaughtered by decapitation against the background of ethereal narcosis, the spleen was taken out and the content of antobidy-forming cells was determined threein by Erne'method, as well as titres of agglutinines and hemolysines in the peripheral blood using known methods.
The content of antibody-forming cells was determined for 10^6 splenocytes and for the entire mass of the spleen.

[6] = test system: cell immunity; assay: Effect on cell immunity: time of rejection of a skin graft in tumor-carriers; assay type: in vivo, male rats of the Vistar line
Protocol: as §1, §2
The effect of the compound II according to the present invention on the cell immunity was studied on male rats of the Vistar line with a mass of 150-200 g. The animals were subjected to transplantation, by a standard method, of a skin graft of 2×3 cm size taken from rats of the August line. Then the animals were inoculated, under the thigh skin, with 2×10^8 cells of a regrafted strain of Schvetz's erythroleukosis.
CDDP was administered in a solution, while polymethylsiloxane and the compound II of the present invention--as a powder which was introduced into an opened abdominal cavity following to above-described procedure. The intact animals were used as a control. The time of rejection of the skin graft was fixed by variation of its temperature, colour and elasticity.

[7] = group I: compound II then CDDP, 1 year after operation, group II: CDDP only, 9 months-1 year
[8] = group I: compound II then CDDP, 2-3.5 years after the operation, group II: CDDP only
[9] = 4 days after immunization with ram erythrocytes

SMILES: N.N.[Cl][Pt][Cl] [CDDP, cis-dichlorodiammonioplatinum (II)]
- Full remission, number of patients ([1]; group I (30): compound II then CDDP, group II (47): CDDP only): 14 patients
- Full remission, share of patients ([1]; group I (30 patients): compound II during operation then intraperitoneal CDDP, 2-3.5 years, group II (47 patients): CDDP only): 30%
- Deaths, number of patients [1, 7]: 9 persons
- Deaths, share of patients [1, 7]: 19%
- Partial remission and stabilization of the process, number of patients [1, 8]: 14 persons
- Partial remission and stabilization of the process, share of patients [1, 8]: 30%
- Recurrence of the tumor growth, number of patients ([1]; group II: CDDP only): 10 persons
- Recurrence of the tumor growth, share of patients ([1]; group II: CDDP only): 21%
- Degree and restoration of histological changes [2]: pronounced to even greater extent than in the case of administration of the compounds according to the present invention, they were only partly restored on the 30th day after administration
- Effectiveness of therapy of ovary carcinoma [3]: 100%
- Survival of animals ([4]; on the 10th day after inoculation of the tumor cells): 80%
- Life span ([4]; rats with Schvetz's erythroleukosis): 11.5 ± 0.5 days
- Degree of inhibition of the tumor growth ([4]; rats, single intraperitoneal or intratumoral administration on 4th day after inoculation): 78%
- Effect on humoral immunity (in words) [5]: inhibits the humoral immunity
- Content of antibody-forming cells for the entire spleen [5, 9]: (36.42 ± 2.15) × 10^3
- Content of antibody-forming cells per 10^6 of splenocytes [5, 9]: 20.50 ± 2.15
- Effect on characteristics of the cell immunity of tumor-carriers (in words) [6]: does not substantially affect the characteristics of the cell immunity of the tumor-carriers
- Time of rejection of a skin graft ([6]; intraperitoneal CDDP 5.6, polymethylsiloxane 2,000, compound II 550 mg/kg): 13.5 ± 0.5 days

— patent US5087712A, “Derivatives of platinum (II) with polymethylsiloxane, method for preparing same and antitumor agent based thereon” (priority 1989, dated 1992)
